From US20190315711A1 (eXIthera Pharmaceuticals, Inc., priority 2016, published 2019)

What was measured:
[1] = Caco-2 cell permeability assay (A-B and B-A); type: in vitro ADME; settings: human; for Papp A→B at 60 min, 10 μM: A-B direction; for Papp B→A at 40 min, 10 μM: B-A direction
Method: The following procedure was used to determine the ability of a test compound to cross Caco-2 cells (human intestinal epithelial cells derived from a colorectal adenocarcinoma). The cells were seeded at 1×10^5 cells/cm^2 in 96-well Multiscreen™ plates (Millipore). Permeability assays were performed with the cells at days 21-25 post-seeding. Cells are typically used for 15 consecutive passages in culture.
This assay can be performed in either the apical to basolateral (A−B) or basolateral to apical (B−A) direction. The test compound was prepared at 10 μM in HBSS-MES (pH 6.5) or HBSS-HEPES (pH 7.4) with a final DMSO concentration of 1%. The working solution was then centrifuged and the supernatant added to the donor side. The assay plate was incubated at 37° C. with gentle shaking for 60 min or 40 min for the A−B or B−A assay, respectively. Samples were aliquoted from the donor side at time zero and the end point, and from the receiver side at the end point.
Reference compounds, propranolol (highly permeable), labetalol (moderately permeable), ranitidine (poorly permeable), and colchicine (P-glycoprotein substrate) were included in each assay.
Samples are analyzed by HPLC-MS/MS using selected reaction monitoring. The HPLC system consists of a binary LC pump with autosampler, a C-18 column, and a gradient.
The apparent permeability coefficient (Papp) of the test compound (Equation 2) and its recovery (Equation 3) are calculated as follows: […]
wherein A is the surface area of the cell monolayer (0.11 cm^2), C is concentration of the test compound expressed as peak area, D denotes donor, and R is receiver. “0”, “mid,” and “end” denote time at zero, mid-point, and end of the incubation, respectively. At is the incubation time. V is the volume of the donor or receiver.
This is most likely due to non-specific binding or degradation.

Thrombin = target: T1, Thrombin (Homo sapiens, UniProt P00734); assay: Dose response assay for protease inhibitors: thrombin; type: biochemical; settings: ratio versus Factor XIa
T1 construct: Thrombin; 0.2 μM in 50% glycerol (7.34 μg/mL)
Method: • Assay buffer: 20 mM Hepes, pH 7.4; 150 mM NaCl; 0.02% Tween 20 • Compounds: 10 mM stocks in DMSO • Substrate: 20 mM Glp-Pro-Arg-AMC, 25 mg/2.3 mL H2O (store at +4° C.) [Factor XIa, thrombin, and trypsin] • 20 mM Pro-Phe-Arg-AMC (Bachem I-1295), 25 mg/2.2 mL H2O or Boc-Leu-Gly-Arg-AMC (Bachem I-1105), 25 mg/2.07 mL H2O (store at +4° C.) [Factor Xa] • Enzyme: Factor XIa; 0.25 M in 50% glycerol (20 μg/mL) • Trypsin; 0.2 μM in 50% glycerol (4.8 μg/mL) • Thrombin; 0.2 μM in 50% glycerol (7.34 μg/mL) • Factor Xa; 0.2 μM in 50% glycerol (9.2 μg/mL)
• 1. Dilute the substrate to 100 μM in assay buffer (30 μL/6 mL). The enzyme is diluted to 0.5 nM just prior to use (12 L/6 mL for Factor XIa; 15 μL/6 mL for all of the rest.) • 2. Pipette 50 μL of substrate into each well of the 96 well (12×8) microtiter plate. (Column 1 is used as the 100% activity control and receives no compound, and Column 12 is the blank and receives no enzyme.) Add an additional 46 μL to column 2. • 3. Pipette 4 μL of each compound into the appropriate well in column 2 of the plate (unknowns assayed in triplicate, standard assayed in duplicate). The final compound concentration will be 1/50th of the stock. • 4. Serially two-fold dilute the compound by mixing the sample in column 2, removing 50 μL to the next well (column 3), mix and remove to column 4, etc. until column 11. After mixing column 11, remove 50 μL and discard. • 5. Pipette 50 μL of buffer into column 12. Initiate the reaction by adding 50 μL of enzyme solution to each well of columns 1-11 as rapidly as possible. • 6. Read the plate in a spectrophotometer (SpectraMax) at 30° C., wherein each well is measured every 60 s for 30 min. For Factor Xa assays, each well is measured every 1 min for a total of 60 min. • 7. For Factor XIa assays, the compounds are assayed, in duplicate, at 3 different starting concentrations, 20, 2, and 0.2 μM; 1:10, 1:100, and 1:1000 dilution of 10 mM stock or at 2, 0.2, and 0.02 μM; 1:100, 1:1000, and 1:10,000 dilution of 10 mM stock. Data for each concentration are combined for graphing and data fitting. • 8. Data can be used both for estimation of IC50 and for estimation of Kon.

[2] = Metabolic stability in dog hepatocytes; type: in vitro ADME; settings: pooled cryopreserved hepatocytes; beagle dog hepatocytes, 2 μM compound, 500,000 cells/mL, 37° C.; read-out: Dog Hepatocyte Stability (T½: min)
Method: The following procedure was used to determine the stability of test compounds in beagle dog hepatocytes in a 96-well plate format. The test compounds, including the controls, imipramine and 7-ethoxycoumarin, were dissolved at 10 mM in DMSO, followed by further 5-fold dilution with DMSO to 2 mM. Pooled cryopreserved beagle dog hepatocytes were thawed and transferred into complete medium. Cells were gently centrifuged (700 rpm for 5 min) and the pellet rinsed with KHB (Krebs Henseleit buffer). Cells were resuspended, counted using Trypan blue, and adjusted to 1 million cells/mL in KHB buffer. The 2 mM compound stock solutions were diluted 10-fold with acetonitrile, followed by a further 50-fold dilution with KHB buffer. 200 μL of these compound solutions were transferred to 96-well polypropylene assay plates and an equal volume of the hepatocyte solution was added and mixed to initiate the reaction (final assay concentrations were 2 μM compound and 500,000 cells/mL). Assay plates were incubated at 37° C. in 5% CO2 with gentle agitation. 50 μL aliquots were removed at multiple time points out to 180 minutes and quenched with 6 volumes of cold acetonitrile (containing 250 ng/mL of carbutamide and chrysin as internal standards) to terminate the reaction and precipitate protein. Quenched samples were maintained on ice. The quenched samples were centrifuged at 2000×g (3100 rpm) for 10 minutes at 4° C. 50 μL aliquots of the supernatants were removed and diluted with 100 μL Milli-Q water to reduce the % organic content prior to bioanalysis by LC-MS/MS. Peak areas corresponding to the test compound were recorded. The compound remaining was calculated by comparing the peak area at each time point to time zero. Data were analyzed and results were calculated using Microsoft Excel 2010.

| SMILES | Papp A→B at 60 min, 10 μM [1] | Papp B→A at 40 min, 10 μM [1] | Ratio: Thrombin/FXIa (Thrombin) | half-life at 2 μM [2] |
| --- | --- | --- | --- | --- |
| Cc1ccccc1N(C)C(=O)[C@@H]1[C@@H](Cc2ccnc(N)c2)C(=O)N1C(=O)N[C@@H](C1CCCCC1)C(F)(F)F [Compound 15] | 11 to 30 ×10⁻⁶ cm/s | ≤ 10 ×10⁻⁶ cm/s | G (“G” indicates 1-100) |  |
| CN(C(=O)[C@@H]1[C@@H](Cc2ccnc(N)c2)C(=O)N1C(=O)N[C@@H](C1CCCCC1)C(F)(F)F)c1cccnc1 [Compound 17] | 11 to 30 ×10⁻⁶ cm/s | 11 to 30 ×10⁻⁶ cm/s | G (“G” indicates 1-100) |  |
| CN(C(=O)[C@@H]1[C@@H](Cc2ccnc(N)c2)C(=O)N1C(=O)N[C@@H](C1CCCCC1)C(F)(F)F)c1ccncc1 [Compound 18] | 11 to 30 ×10⁻⁶ cm/s | 11 to 30 ×10⁻⁶ cm/s | H (“H” indicates 101-1000) |  |
| CN(C(=O)[C@@H]1[C@@H](Cc2ccnc(N)c2)C(=O)N1C(=O)N[C@@H](C1CCCCC1)C(F)(F)F)c1cncnc1 [Compound 19] | 11 to 30 ×10⁻⁶ cm/s | 31 to 50 ×10⁻⁶ cm/s | G (“G” indicates 1-100) |  |
| CN(C(=O)[C@@H]1[C@@H](Cc2ccnc(N)c2)C(=O)N1C(=O)N[C@@H](C1CCCCC1)C(F)(F)F)c1ncccn1 [Compound 21] | 11 to 30 ×10⁻⁶ cm/s | ≤ 10 ×10⁻⁶ cm/s | H (“H” indicates 101-1000) | < 1 h |
| CN(C(=O)[C@@H]1[C@@H](Cc2ccnc(N)c2)C(=O)N1C(=O)N[C@@H](C1CCCCC1)C(F)(F)F)c1cccc(F)c1 [Compound 22] | 11 to 30 ×10⁻⁶ cm/s | ≤ 10 ×10⁻⁶ cm/s | G (“G” indicates 1-100) |  |
| CCN(C(=O)[C@@H]1[C@@H](Cc2ccnc(N)c2)C(=O)N1C(=O)N[C@@H](C1CCCCC1)C(F)(F)F)c1ccccc1 [Compound 24] | 11 to 30 ×10⁻⁶ cm/s | ≤ 10 ×10⁻⁶ cm/s | G (“G” indicates 1-100) |  |
| CC[C@@H](NC(=O)N1C(=O)[C@H](Cc2ccnc(N)c2)[C@H]1C(=O)N(C)c1ccncc1)C1CCCCC1 [Compound 25] | ≤ 10 ×10⁻⁶ cm/s | 31 to 50 ×10⁻⁶ cm/s | I (“I” indicates >500) | 2.02 to 4 h |
| CC[C@@H](NC(=O)N1C(=O)[C@H](Cc2ccnc(N)c2)[C@H]1C(=O)N(C)c1ccccc1)C1CCCCC1 [Compound 27] | 11 to 30 ×10⁻⁶ cm/s | 11 to 30 ×10⁻⁶ cm/s | H (“H” indicates 101-1000) | 2.02 to 4 h |
| CN(C(=O)[C@@H]1[C@@H](Cc2ccnc(N)c2)C(=O)N1C(=O)N[C@@H](C1CCCCC1)C1CC1)c1ccccc1 [Compound 36] | 31 to 50 ×10⁻⁶ cm/s | 11 to 30 ×10⁻⁶ cm/s | H (“H” indicates 101-1000) | < 1 h |
| CC[C@@H](NC(=O)N1C(=O)[C@H](Cc2ccnc(N)c2)[C@H]1C(=O)N(CC)c1ncccn1)C1CCCCC1 [Compound 39] | 11 to 30 ×10⁻⁶ cm/s | 11 to 30 ×10⁻⁶ cm/s | I (“I” indicates >500) | < 1 h |
| CC[C@@H](NC(=O)N1C(=O)[C@H](Cc2ccnc(N)c2)[C@H]1C(=O)N(C)c1ccncc1)c1ccccc1 [Compound 42] | ≤ 10 ×10⁻⁶ cm/s | 31 to 50 ×10⁻⁶ cm/s | H (“H” indicates 101-1000) | 2.02 to 4 h |
| CC[C@@H](NC(=O)N1C(=O)[C@H](Cc2ccnc(N)c2)[C@H]1C(=O)N(C)c1ccccc1)c1cccnc1 [Compound 44] | ≤ 10 ×10⁻⁶ cm/s | 31 to 50 ×10⁻⁶ cm/s | G (“G” indicates 1-100) | 2.02 to 4 h |
| CC[C@@H](NC(=O)N1C(=O)[C@H](Cc2ccnc(N)c2)[C@H]1C(=O)N(C)c1ccccc1)C1CC1 [Compound 46] | 11 to 30 ×10⁻⁶ cm/s | > 50 ×10⁻⁶ cm/s | G (“G” indicates 1-100) |  |
| C[C@@H](NC(=O)N1C(=O)[C@H](Cc2ccnc(N)c2)[C@H]1C(=O)N(C)c1ccccc1)C1CCCCC1 [Compound 49] | > 50 ×10⁻⁶ cm/s | 11 to 30 ×10⁻⁶ cm/s | H (“H” indicates 101-1000) | < 1 h |
| CCC[C@@H](NC(=O)N1C(=O)[C@H](Cc2ccnc(N)c2)[C@H]1C(=O)N(C)c1ccccc1)C1CCCCC1 [Compound 50] | 31 to 50 ×10⁻⁶ cm/s | ≤ 10 ×10⁻⁶ cm/s | G (“G” indicates 1-100) | 1.02 to 2 h |
| CN(C(=O)[C@@H]1[C@@H](Cc2ccnc(N)c2)C(=O)N1C(=O)N[C@@H](C1CCCCC1)C1CC1)c1ccncc1 [Compound 52] | 11 to 30 ×10⁻⁶ cm/s | 31 to 50 ×10⁻⁶ cm/s | H (“H” indicates 101-1000) | < 1 h |
| CC[C@@H](NC(=O)N1C(=O)[C@H](Cc2ccnc(N)c2)[C@H]1C(=O)N(C)c1ccncc1)c1cccnc1 [Compound 59] | ≤ 10 ×10⁻⁶ cm/s | ≤ 10 ×10⁻⁶ cm/s | H (“H” indicates 101-1000) | > 4 h |
| CC[C@@H](NC(=O)N1C(=O)[C@H](Cc2ccnc(N)c2)[C@H]1C(=O)N(C)c1ncccn1)c1cccnc1 [Compound 61] | ≤ 10 ×10⁻⁶ cm/s | 11 to 30 ×10⁻⁶ cm/s | H (“H” indicates 101-1000) | 2.02 to 4 h |
| CN(C(=O)[C@@H]1[C@@H](Cc2ccnc(N)c2)C(=O)N1C(=O)N[C@@H](C1CC1)C(F)(F)F)c1ccncc1 [Compound 77] | ≤ 10 ×10⁻⁶ cm/s | 31 to 50 ×10⁻⁶ cm/s | H (“H” indicates 101-1000) | 2.02 to 4 h |
| CN(C(=O)[C@@H]1[C@@H](Cc2ccnc(N)c2)C(=O)N1C(=O)N[C@@H](C1CC1)C(F)(F)F)c1ncccn1 [Compound 78] | 11 to 30 ×10⁻⁶ cm/s | > 50 ×10⁻⁶ cm/s | H (“H” indicates 101-1000) | < 1 h |
